Assay results from patent US20260256909A1, “COMBINATION OF A BTN3A ACTIVATING ANTIBODY, A BCL2 INHIBITOR AND HYPOMETHYLATING AGENT FOR USE IN TREATING CANCER” (Imcheck Therapeutics, priority 2022, published 2026).

How the values were obtained:
Vγ9Vδ2 T cells [1] = test: Expression of activating and inhibitory receptors by Vγ9Vδ2 T cells in HD-PBMC; type: cell-based, human; settings: for effect on ICT01-induced expression of activating and inhibitory receptors on Vγ9Vδ2 T cells: day 5, Venetoclax 0-0.1 μM, 5-Azacytidine 0-0.4 μM
Method: Vγ9Vδ2 T cell functions are tightly regulated by activating (NKG2D and DNAM-1) and inhibitory receptors (PD-1, NKG2A, BTLA, TIM3). To assess the impact of Venetoclax and 5-Azacytidine treatment on the expression of these receptors by Vγ9Vδ2 T cells, frozen human PBMC from healthy donors (HD, n=6) were thawed and treated with ICT01 or its isotype control (hIgG1S) used at 1 μg/mL in the presence or absence of increasing concentrations of Venetoclax (0-0.1 μM), 5-Azacytidine (0-0.4 μM) or the combination in PBMC medium (RPMI 1640 Medium supplemented with 10% FBS, 1% Penicillin/Streptomycin, 1 mM Sodium Pyruvate and 50 IU/mL IL2). Cells were harvested on day 5, centrifuged at 1800 rpm for 5 minutes and then incubated 10 minutes at RT with 25 μl of FcR blocking reagent (Miltenyi Biotec) before adding 25 μL of the following antibody mix prepared in PBS+2% FBS+2 mM EDTA (FACS buffer): anti-CD4-BUV395, Vδ2-PE, CD3-PE-CF594 and CD8-A700 antibodies for the identification of immune subsets, anti-BTLA-BV421, PD1-BV650, DNAM-1-BV785, TIM3-BB515, NKG2A-PE-Vio770 and NKG2D-APC antibodies for the detection of inhibitory and activating receptors, and a viability marker (LIVE/DEAD™ Fixable Dead Cell Stain) was added to distinguish live from dead cells. Cells were incubated 20 minutes at 4° C. and washed 2 times in FACS buffer before flow cytometry analysis.

Vγ9Vδ2 T cells [2] = test: Survival of Vγ9Vδ2 T cells in HD-PBMC (Caspase3/7 and dead cell marker, flow cytometry); type: cell-based, human; settings: for reduced survival of Vγ9Vδ2 T cells compared to no Venetoclax condition: simultaneous treatment with ICT01 1 μg/mL
Method: The effect of ICT01 on the survival of Vγ9Vδ2 T cells upon treatment with Bcl-2 family member inhibitors was assessed in Peripheral Blood Mononuclear Cells from Healthy Donors (HD-PBMC) using the apoptotic marker Caspase3/7 and a dead cell marker in flow cytometry analysis.
Peripheral Blood Mononuclear Cells (PBMC) were isolated by Ficoll density gradient centrifugation of peripheral blood (EDTA-buffy coats) from healthy donors (HD, n=4-6), cultured in PBMC medium (RPMI 1640 Medium supplemented with 10% Fetal Bovine Serum (FBS), 1% Penicillin/Streptomycin and 1 mM Sodium Pyruvate) and treated with ICT01 or its isotype control (hIgG1S) used at 1 μg/mL in the presence or absence of increasing concentrations of Venetoclax (0-0.1 μM), 5-Azacytidine (0-0.4 μM) or the combination, or ABT-737 (0-1.875 μM), Navitoclax (0-1.875 μM) or MIK665 (0-1.875 μM). Cells were harvested on day 2, centrifuged at 1800 rpm for 5 minutes and then incubated 10 minutes at room temperature (RT) with 25 μl of FcR blocking reagent (Miltenyi Biotec) before adding 25 μL of the following antibody mix prepared in PBS+2% FBS+2 mM EDTA (FACS buffer): anti-CD4-BUV395, CD56-BV421, Vd2-PE, CD3-PE-CF594 and CD8-A700 antibodies for the identification of immune subsets, anti-CD25-BV650 and CD69-APC antibodies were added to monitor activation status of Vγ9Vδ2 T cells, and a viability marker (LIVE/DEAD™ Fixable Dead Cell Stain) was added to distinguish live from dead cells. Cells were incubated 20 minutes at room temperature (RT) and washed 2 times with FACS buffer. A Caspase3/7 Green detection reagent (ThermoFisher) was added to determine apoptosis and cells were incubated for 30 minutes at RT before flow cytometry analysis.
In a similar experiment, freshly isolated PBMC were stimulated with ICT01 or its isotype control hIgG1S for 1 day prior to a 2 day-treatment with Venetoclax (FIG. 3a). The number of live Vγ9Vδ2 T cells was assessed by flow cytometry at the end of the incubation time.

[3] = 0.01 μM Venetoclax, HD-PBMC, 48 h
[4] = 0.1 μM Venetoclax, HD-PBMC, 48 h

Compound | effect on ICT01-induced expression of activating and inhibitory receptors on Vγ9Vδ2 T cells (Vγ9Vδ2 T cells [1]) | effect on the survival of Vγ9Vδ2 T cells (Vγ9Vδ2 T cells [2]; HD-PBMC, 48 h, 5-Azacytidine 0-0.4 μM) | reduction of live cells (Vγ9Vδ2 T cells) compared to no Venetoclax condition (Vγ9Vδ2 T cells [2]; [3]) | reduced survival of Vγ9Vδ2 T cells compared to no Venetoclax condition (Vγ9Vδ2 T cells [2]; [3]) | reduction of live cells (Vγ9Vδ2 T cells) compared to no Venetoclax condition (Vγ9Vδ2 T cells [2]; [4]) | reduced survival of Vγ9Vδ2 T cells compared to no Venetoclax condition (Vγ9Vδ2 T cells [2]; [4]) | expression of activating (NKG2D, DNAM-1) and inhibitory receptors (PD-1, NKG2A, BTLA, TIM3) on Vγ9Vδ2 T cells (Vγ9Vδ2 T cells [1]; day 5, ICT01 1 μg/mL, 50 IU/mL IL2) | Venetoclax induced cell death of Vγ9Vδ2 T cells (Vγ9Vδ2 T cells [2]; PBMC stimulated with ICT01 for 1 day prior to a 2 day-treatment with Venetoclax, vs hIgG1S)
Nc1ncn([C@@H]2O[C@H](CO)[C@@H](O)[C@H]2O)c(=O)n1 [5-Azacytidine, 4-amino-1-[(2R,3R,4S,5R)3,4-dihydroxy-5-(hydroxymethyl)oxolan-2-yl]-1,3,5-triazin-2-one] | unaffected | no effect |  |  |  |  |  | 
CC1(C)CCC(CN2CCN(c3ccc(C(=O)NS(=O)(=O)c4ccc(NCC5CCOCC5)c([N+](=O)[O-])c4)c(Oc4cnc5[nH]ccc5c4)c3)CC2)=C(c2ccc(Cl)cc2)C1 [Venetoclax, 4-[4-[[2-(4-chlorophenyl)-4,4-dimethylcyclohexen-1-yl]methyl]piperazin-1-yl]-N-[3-nitro-4-(oxan-4-ylmethylamino)phenyl]sulfonyl-2-(1H-pyrrolo[2,3-b]pyridin-5-yloxy)benzamide] | unaffected |  | ~ 29% | ~ 11% | ~ 49% | ~ 30% |  | 
ICT01: humanized BTN3A activating antibody of mAb 7.2, heavy chain SEQ ID NO: 4, light chain SEQ ID NO: 6, silent IgG1 L247F/L248E/P350S |  |  |  |  |  |  | increased expression | significantly reduced
